How the values were obtained:
[1] = tested on: KRAS G12D-dependent Ba/F3 cells; test: Ba/F3 proliferation assay, KRAS G12D; type: cell-based; settings: Mus musculus, BaF3, 72 h, AlamarBlue
How it was run: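 Proliferation of mutant-KRAS-driven Ba/F3 cells cultured without IL-3 is followed with AlamarBlue after compound addition. Curves are fitted from duplicate wells.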

NCI-H358 cells = test: NCI-H358 CTG proliferation assay (120 h) (NSCLC, G12C); type: cell-based, human; settings: Homo sapiens, assay 2, CTG, read-out: H358 (assay 2) IC50
How it was run: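 IC50 values derive from four-parameter nonlinear regression of CellTiter-Glo viability (RLU relative to DMSO wells) after 120 h of exposure. Cells were plated in RPMI-1640 + 10% FCS at 2000 per well (assay 1) or 200 per well (assay 2). Untreated cells were measured at compound addition as T0.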

LOVO cells = test: LOVO CTG proliferation assay (120 h) (CRC, G13D); type: cell-based; settings: Homo sapiens, CTG 120 h
How it was run: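 IC50 comes from a four-parameter fit of CellTiter-Glo viability, expressed as RLU relative to DMSO wells. Compound exposure lasted 120 h in LOVO cells seeded the day before at 1000 cells/well in DMEM with 10% fetal calf serum.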

[2] = Metabolic (microsomal) stability assay, human liver microsomes (HLM); type: in vitro ADME; settings: predicted clearance as percent of liver blood flow, 1 μM
How it was run: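 LC-MS/MS tracked parent disappearance at 0, 5, 15, 30 and 60 min in NADPH-initiated incubations with 1 mg/mL human microsomal protein and 1 μM compound at 37°C, pH 7.5. First-order fits gave intrinsic clearance, which was scaled up and reported as % QH. NADPH-free controls were also run.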

[3] = Plasma protein binding assay (PPB), equilibrium dialysis, 10% FCS in PBS; type: in vitro ADME; settings: bovine, read-out: PPB 10% FCS (% fu)
How it was run: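 Test compound (1-10 μmol/L) in 10% FCS in PBS was dialysed for 3-5 h at 37° C versus PBS ± dextran across a semipermeable membrane. LC-MS of both compartments after protein precipitation gave Cserum and Cbuffer, from which the unbound fraction fu was derived.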

Compound	IC50 [1] [nM]	IC50 (NCI-H358 cells) [nM]	IC50 (LOVO cells) [nM]	HLM QH [2] [%]	fraction unbound [3]
C[C@H](Oc1cc(N2CCNC[C@]23CCOC3)nc(-c2onc3c2CCC[C@@]32CCCc3sc(N)c(C#N)c32)n1)[C@@H]1CCCN1C [I-12]	4	3120	824	36	0.46
C[C@H](Oc1cc(N2CCNC[C@@]23CCOC3)nc(-c2onc3c2CCC[C@@]32CCCc3sc(N)c(C#N)c32)n1)[C@@H]1CCCN1C [I-13]	49	4280	1510	<24	0.21
C[C@H](Oc1cc(-n2cncc3ccnc2-3)nc(-c2onc3c2CCC[C@@]32CCCc3sc(N)c(C#N)c32)n1)[C@@H]1CCCN1C [I-14]	18		1350		0.1
C[C@H]1CNCCCN1c1nc(-c2onc3c2CCC[C@@]32CCCc3sc(N)c(C#N)c32)cc(C(F)(F)F)n1 [I-15]	1130			38	0.08
C[C@H](Oc1cc(-c2cn(C)nn2)nc(-c2onc3c2CCC[C@@]32CCCc3sc(N)c(C#N)c32)n1)[C@@H]1CCCN1C [I-16]	32	204		31	0.55
CO[C@@H]1C[C@@H]([C@H](C)Oc2cc(-c3cnn(C)n3)nc(-c3onc4c3CCC[C@@]43CCCc4sc(N)c(C#N)c43)n2)N(C)C1 [I-17]	77		730	56	0.24
C[C@H](Oc1cc(-n2cncn2)nc(-c2onc3c2CCC[C@@]32CCCc3sc(N)c(C#N)c32)n1)[C@@H]1CCCN1C [I-18]	22	179	260	48	0.61
C[C@H](Oc1cc(N2Cc3cnn(C)c3C2)nc(-c2onc3c2CCC[C@@]32CCCc3sc(N)c(C#N)c32)n1)[C@@H]1CCCN1C [I-19]	165	2160	479	<24	0.48
C[C@H](Oc1cc(-c2ccn([C@H]3CCOC3)n2)nc(-c2noc3c2CCC[C@@]32CCCc3sc(N)c(C#N)c32)n1)[C@@H]1CCCN1C [II-127]	109	400	131	<24	0.08
C[C@H](Oc1cc(-c2ccn(Cc3ncco3)n2)nc(-c2noc3c2CCC[C@@]32CCCc3sc(N)c(C#N)c32)n1)[C@@H]1CCCN1C [II-128]	83	417	91	<24	0.06
C[C@H](Oc1cc(-c2ccn(C[C@H]3CCOC3)n2)nc(-c2noc3c2CCC[C@@]32CCCc3sc(N)c(C#N)c32)n1)[C@@H]1CCCN1C [II-129]	92	295	69	<24	0.23
C[C@H](O)Cn1ncc(-c2cc(O[C@@H](C)[C@@H]3CCCN3C)nc(-c3noc4c3CCC[C@@]43CCCc4sc(N)c(C#N)c43)n2)n1 [II-134]	1170		3240	34	0.31
C[C@H]1CNCCCN1c1cc(-c2ccn(C)n2)nc(-c2noc3c2CCC[C@@]32CCCc3sc(N)c(C#N)c32)n1 [II-140]	2240	702	5490	<24	
C[C@H]1CNCCCN1c1cc(-n2ccnc2)nc(-c2noc3c2CCC[C@@]32CCCc3sc(N)c(C#N)c32)n1 [II-142]	5860	10800	2640		
C[C@H](Oc1cc(-c2ccn(C)n2)nc(-c2noc3c2CCC[C@@]32CCCc3sc(N)c(C#N)c32)n1)[C@@H]1C[C@H](F)CN1C [II-144]	4		2840	75	0.11
C[C@H](Oc1cc(N2CCN(C)C3(COC3)C2)nc(-c2noc3c2CCC[C@@]32CCCc3sc(N)c(C#N)c32)n1)[C@@H]1C[C@@H](F)CN1C [II-148]	14		109	52	0.25
C[C@H](Oc1cc(N2CCN(C)C3(CC3)C2)nc(-c2noc3c2CCC[C@@]32CCCc3sc(N)c(C#N)c32)n1)[C@@H]1C[C@@H](F)CN1C [II-149]	18		270	45	0.17
C[C@H](Oc1cc(N2CCN(C)C3(CCOC3)C2)nc(-c2noc3c2CCC[C@@]32CCCc3sc(N)c(C#N)c32)n1)[C@@H]1C[C@@H](F)CN1C (some centres unmarked) [II-151]	53		1060	59	0.24
C[C@H](Oc1cc(N2CC3COCC(C2)N3)nc(-c2noc3c2CCC[C@@]32CCCc3sc(N)c(C#N)c32)n1)[C@@H]1CCCN1C [II-160]	429		7610	31	0.53
C[C@H](Oc1cc([C@H]2CCNC2)nc(-c2noc3c2CCC[C@@]32CCCc3sc(N)c(C#N)c32)n1)[C@@H]1CCCN1C [II-163]	97		1090		0.61
CC(C)N1CCCN(c2cc(-n3ccnc3)nc(-c3noc4c3CCC[C@@]43CCCc4sc(N)c(C#N)c43)n2)[C@@H](C)C1 [II-169]	285	595	553	39	
CO[C@H]1CCN(C)[C@@H]1[C@H](C)Oc1cc(-n2ccc(CC(=O)NC(C)C)n2)nc(-c2noc3c2CCC[C@@]32CCCc3sc(N)c(C#N)c32)n1 [II-183]	12		9	75	0.04
CCN1CCN(c2cc(O[C@@H](C)[C@@H]3C[C@@H](F)CN3C)nc(-c3noc4c3CCC[C@@]43CCCc4sc(N)c(C#N)c43)n2)CC12CC2 [II-185]	47	510	714		0.02

Continued, values first:

IC50 [1] [nM]	IC50 (NCI-H358 cells) [nM]	IC50 (LOVO cells) [nM]	HLM QH [2] [%]	fraction unbound [3]	Compound
109	255	97	<24	0.13	C[C@H](Oc1cc(-n2cc(-c3cncs3)nn2)nc(-c2noc3c2CCC[C@@]32CCCc3sc(N)c(C#N)c32)n1)[C@@H]1CCCN1C [II-125]
211	1680	251	25	0.38	C[C@H](Oc1cc(-n2cnc(C(=O)N(C)C)c2)nc(-c2noc3c2CCC[C@@]32CCCc3sc(N)c(C#N)c32)n1)[C@@H]1CCCN1C [II-126]
14		284	28	0.6	C[C@H](Oc1cc(-n2cc3c(n2)CCN(C)C3)nc(-c2noc3c2CCC[C@@]32CCCc3sc(N)c(C#N)c32)n1)[C@@H]1CCCN1C [II-141]
250		472	<24	0.37	C[C@@H]1CN(c2cc(O[C@@H](C)[C@@H]3CCCN3C)nc(-c3noc4c3CCC[C@@]43CCCc4sc(N)c(C#N)c43)n2)CCN1 [II-161]
41		401	<24	0.69	C[C@H](Oc1cc(N2CCN[C@@H](C)C2)nc(-c2noc3c2CCC[C@@]32CCCc3sc(N)c(C#N)c32)n1)[C@@H]1CCCN1C [II-162]
154		863	<24	0.22	CC(C)[C@@H]1CN(c2cc(O[C@@H](C)[C@@H]3CCCN3C)nc(-c3noc4c3CCC[C@@]43CCCc4sc(N)c(C#N)c43)n2)CCN1 [II-166]
614		6430	<24	0.26	C[C@H](Oc1cc(N2C[C@@H]3[C@@H](N)[C@@H]3C2)nc(-c2noc3c2CCC[C@@]32CCCc3sc(N)c(C#N)c32)n1)[C@@H]1CCCN1C [II-167]
27		193	62	0.47	C[C@H](Oc1cc(-n2cc3c(n2)CNC3)nc(-c2noc3c2CCC[C@@]32CCCc3sc(N)c(C#N)c32)n1)[C@@H]1CCCN1C [II-168]
10		593	32	0.23	C[C@H](Oc1cc(N2CCN(C)C3(CC3)C2)nc(-c2noc3c2CCC[C@@]32CCCc3sc(N)c(C#N)c32)n1)[C@@H]1CCCN1C [II-171]
51		1230	<24	0.41	C[C@H](Oc1cc(N2C[C@H](C)N(C)[C@@H](C)C2)nc(-c2noc3c2CCC[C@@]32CCCc3sc(N)c(C#N)c32)n1)[C@@H]1CCCN1C [II-173]
1710			<24	0.81	CNC1CCN(c2cc(O[C@@H](C)[C@@H]3CCCN3C)nc(-c3noc4c3CCC[C@@]43CCCc4sc(N)c(C#N)c43)n2)CC1 [II-214]
